Measured values reported in US20120065228A1, “COMPOSITIONS AND METHODS FOR TREATING, CONTROLLING, REDUCING, OR AMELIORATING OCULAR INFLAMMATORY WITH LOWER RISK OF INCREASED INTRAOCULAR PRESSURE” (priority 2007, published 2012).
Where “and” joins values, the source holds several entries; their conditions need not be identical. Identical values can stand only once. Like-named read-outs stand apart in the source and are kept apart here.

Key:
[1] = system: New Zealand White rabbits; type: in vivo; conditions: for Rabbits that died or were euthanized between Days 11 and 33: right eye four times daily, Days 1-31; for Mortality (animals found dead or euthanized prior to study completion/number of animals in group): 50 μL topical right eye 4 x daily, to Day 33; for Mortality rate: right eye four times daily up to 31 days, dexamethasone 0.05 mg/dose, BOL-303242-X per dose level (0.05, 0.25, 0.5 mg/dose)
Description: On Days 1-31, animals received daily topical doses of the appropriate test article into the right eye. Animals were dosed four times per day, with doses administered 2 hours apart. Doses were administered using a calibrated 50-μL pipette. The eyelids were held close for 10 seconds immediately following dosing. The time of each dose administration was recorded.
Animals determined to be moribund were euthanized with an intravenous injection of commercial euthanasia solution.

[2] = system: IL-1β-stimulated cytokine expression in primary human corneal epithelial cells; test: IL-1β-stimulated cytokine production in primary human corneal epithelial cells (30-cytokine Luminex kit); conditions: primary HCECs, 10 ng/ml IL-1β, 18 h
Description: Primary HCECs were seeded in 24-well plates. […] Each treatment was performed in triplicate. Media were collected and used for determination of cytokine content using a 30-cytokine Luminex kit. Cell viability was determined by alamarBlue assay (LP06013).
Median fluorescence intensity (MFI) was used to obtain the concentration of each cytokines in pg/ml based on the standard curve of each cytokine assayed by Luminex. The linear range of the standard curve for each cytokine was used for determination of cytokine concentration. Duplicate values for each sample were averaged. Data were expressed as mean±SD. Statistical analysis was performed using one-way ANOVA-Dunnett's test, and P<0.05 was considered statistically significant.

ocular signs = test: Clinical dose ranging study after cataract surgery: ocular signs (biomicroscopy); type: in vivo, human
Source text: There were 8 treatment groups in this study, consisting of three drug doses, vehicle and three dosing frequencies (see also Table 4-1): • Group A: 1% BOL-303242-X ophthalmic suspension, two times per day (BID) • Group B: 2% BOL-303242-X ophthalmic suspension, one time per day (QD) • Group C: 2% BOL-303242-X ophthalmic suspension, BID • Group D: 2% BOL-303242-X ophthalmic suspension, four times per day (QID) • Group E: 3% BOL-303242-X ophthalmic suspension, QD • Group F: 3% BOL-303242-X ophthalmic suspension, BID • Group G: 3% BOL-303242-X ophthalmic suspension, QID • Group H: Vehicle for BOL-303242-X (divided equally into QID, BID, and QD)
Subjects self-administered study drug, instilling 1 to 2 drops of study drug into the study eye: QID at approximately 4 hour intervals, BID at approximately 12 hour intervals, or QD once in the morning, for 14 days. The initial dose occurred in the clinic at Visit 3 and the final dose was on the day before Visit 6 (postoperative Day 15±1 day). Subjects were examined and evaluated according to the following schedule:
Visit 1 (screening), Visit 2 (cataract surgery), Visit 3 (postoperative Day 1), Visit 4 (postoperative Day 3±1 day), Visit 5 (postoperative Day 8±1 day), Visit 6 (postoperative Day 15±1 day), Visit 7 (postoperative Day 18±1 day). Subject assessments included adverse events (AEs), concomitant medications, ocular symptoms, pinholed Snellen visual acuity (VA), intraocular pressure (IOP), ocular signs (biomicroscopy), fundoscopy, and study drug drop sensation. In addition, subject diaries were collected and reviewed for accuracy and treatment compliance.
Safety: The safety endpoints in this study were: incidence of AEs, change in IOP, ocular signs (biomicroscopy), Snellen VA, fundoscopy, study drug drop sensation assessment.

[3] = system: IL-1β-induced PGE2 release in human conjunctival fibroblasts (HConF); test: IL-1β-induced PGE2 release in human conjunctival fibroblasts (ELISA); type: cell-based; conditions: 3-1000 nM, 18 hours
Description: Human conjunctival fibroblasts (HConF) were seeded in 24-well plates in complete Fibroblast Medium (FM) which contained 2% fetal bovine serum (FBS) and Fibroblast Growth Supplement (FGS). After reaching confluence (about 95%), cells were conditioned in basic FM that had been supplemented with 0.5% charcoal-dextran treated fetal bovine serum (CD-FBS) and without Fibroblast Growth Supplement (FGS) for 24 hours. […] Plates were performed in triplicate. Culture media were evaluated for PGE2 release by ELISA.

[4] = system: PGE2 in the aqueous humor; test: Prostaglandin E2 (PGE2) measurement in aqueous humor, rabbit paracentesis model; type: in vivo; conditions: for PGE2 in aqueous humor, statistical significance versus CTR: p<0.05; for PGE2 in aqueous humor, Mean / PGE2 in aqueous humor: second paracentesis; for PGE2 in aqueous humor: individual eyes
Description: Each rabbit was placed in a restraint device and tagged with the alphanumeric code. The formulations were instilled (50 μl) into the conjunctival sac of both eyes 180, 120, 90 and 30 min before the first paracentesis; then 15, 30, 90 min after the first paracentesis. To perform the first paracentesis the animals were anaesthetized by intravenous injection of 5 mg/kg Zoletil® (Virbac; 2.5 mg/kg tiletamine HCl and 2.5 mg/kg zolazepam HCl) and one drop of local anesthetic (Novesina®, Novartis) was administered to the eye. Anterior chamber paracentesis was performed with a 26 G needle attached to a tuberculin syringe; the needle was introduced into the anterior chamber through the cornea, taking care not to damage the tissues. Two hours after the ® first paracentesis, the animals were sacrificed with 0.4 ml Tanax® (Intervet International B.V.) and the second paracentesis was performed. About 100 μl of aqueous humor were removed at the second paracentesis. Aqueous humor was immediately split in four aliquots and stored at −80° C. until analysis. Then both eyes were enucleated and the iris-ciliary body was carefully excised, placed in polypropylene tubes, and stored at −80° C. until analysis.
For the quantitative determination of PGE2 in the aqueous humor we used the PGE2 Immunoassay kit (R&D Systems; Cat. No. KGE004; Lot. No. 240010). Eleven microliters or 16 μl of aqueous humor were diluted to 110 μl or 160 μl with the calibrator diluent solution provided with the kit. One hundred microliters of samples and of standards were load into a 96-well plate and recorded in a plate layout. Samples were treated following the assay procedure described in the kit. A microplate reader (GDV, Italy; model DV 990 B/V6) set at 450 nm (wavelength correction at 540 nm) was used for making the calibration and analyzing the samples.
Pupillary diameter, PGE2, protein, PMN, and MPO were expressed as mean±SEM. Statistical analysis was performed using one way ANOVA followed by a Newman-Keuls post hoc test. Clinical score was expressed as % of eyes and the statistical analysis was performed using Kruskal-Wallis followed by a Dunn post hoc test. P<0.05 was considered statistically significant in both cases. Prism 4 software (GraphPad Software, Inc.) was used for the analysis and graphs.

[5] = 0.05 mg/dose (0.1% dexamethasone suspension; 1 mg/g BOL-303242-X suspension)

SMILES: Cc1ccc2c(NCC(O)(CC(C)(C)c3cc(F)cc4c3OCC4)C(F)(F)F)cccc2n1 (stereo not shown) [BOL-303242-X]
- Rabbits that died or were euthanized between Days 11 and 33 [1, 5]: one of ten
- Mortality (animals found dead or euthanized prior to study completion/number of animals in group) ([1]; 1 mg/g, 0.05 mg/dose): 1/10^(6)
- Day of Death (day euthanized or found dead) ([1]; 5 mg/g BOL-303242-X ([…]) topical 4 x daily, individual rabbits, Group C): 33
- Rabbits that died or were euthanized between Days 11 and 33 ([1]; 5 mg/g suspension ([…])): two of ten
- Mortality (animals found dead or euthanized prior to study completion/number of animals in group) ([1]; 5 mg/g, […]): 2/10^(5)
- Day of Death (day euthanized or found dead) ([1]; 10 mg/g BOL-303242-X (0.5 mg/dose) topical 4 x daily, individual rabbit, Group B): 11
- Rabbits that died or were euthanized between Days 11 and 33 ([1]; 10 mg/g suspension (0.5 mg/dose)): one of ten
- Morbidity observation in surviving rabbits ([1]; 10 mg/g suspension (0.5 mg/dose), one surviving rabbit (Group B, No. 3048)): diarrhea on Day 18
- Mortality (animals found dead or euthanized prior to study completion/number of animals in group) ([1]; 10 mg/g, 0.5 mg/dose): 1/10^(4)
- Mortality rate [1]: 1-2 deaths per 10 rabbits
- Effect on IL-1β-stimulated G-CSF production [2]: significantly inhibited
- Effect on IL-1β-stimulated production of 6 cytokines (IL-6, IL-7, MCP-1, TGF-α, TNF-α and VEGF) ([2]; comparable potency): significantly inhibited
- Effect on IL-1β-stimulated production of 3 cytokines (GM-CSF, IL-8, and RANTES) ([2]; less potency compared to dexamethasone): significantly inhibited
- Proportions of subjects with increases in scores for AC cells (ocular signs; Visit 4 (2% QD) and Visit 5 (2% QID, 3% QID)): statistically significantly lower proportions
- Proportions of subjects with increases in scores for ciliary flush (ocular signs; Visit 4 (2% QD), Visit 5 (1% BID, 2% QID, 3% BID, 3% QID), and Visit 7 (2% QID and 3% QD)): statistically significantly lower proportions
- Proportions of subjects with increases in scores for AC flare (ocular signs; Visit 4 (2% QID) and Visit 5 (3% BID)): statistically significantly lower proportions
- Proportions of subjects with increases in scores for chemosis (ocular signs; Visit 4 (3% BID)): statistically significantly lower proportions
- Proportions of subjects with increases in scores for palpebral conjunctival injection (ocular signs; Visit 5 (1% BI), 3% BID)): statistically significantly lower proportions
- Proportions of subjects with increases in scores for bulbar conjunctival injection (ocular signs; Visit 5 (2% QID, 3% BID, 3% QID)): statistically significantly lower proportions
- Proportions of subjects with increases in scores for anterior vitreous haze, corneal edema, corneal staining, eyelid erythema, hyphema, and posterior synechiae (ocular signs; any dose groups at any postoperative visits): No statistically significant differences
- Production of PGE2 by IL-1β-induced HConF [3]: successfully inhibits
- PGE2 in aqueous humor, statistical significance versus CTR ([4]; 0.1% topical formulation): statistically significant versus CTR
- PGE2 in aqueous humor, Mean ([4]; 0.1% topical formulation): 1.452 ng/mL
- PGE2 in aqueous humor ([4]; 0.1% topical formulation, listed as BOL): 1.62 ng/mL and 1.88 ng/mL and 2.15 ng/mL and 0.70 ng/mL and 1.34 ng/mL and 1.03 ng/mL
- PGE2 in aqueous humor, statistical significance versus CTR ([4]; 0.5% topical formulation): statistically significant versus CTR
- PGE2 in aqueous humor, Mean ([4]; 0.5% topical formulation): 1.384 ng/mL
- PGE2 in aqueous humor ([4]; 0.5% topical formulation, listed as BOL): 2.31 ng/mL and 2.59 ng/mL and 0.53 ng/mL and 0.75 ng/mL and 0.80 ng/mL and 1.62 ng/mL and 1.09 ng/mL
- PGE2 in aqueous humor, Mean ([4]; 1% topical formulation): 2.168 ng/mL
- PGE2 in aqueous humor ([4]; 1% topical formulation, listed as BOL): 0.50 ng/mL and 1.87 ng/mL and 1.71 ng/mL and 4.04 ng/mL and 1.11 ng/mL and 3.78 ng/mL

SMILES: C[C@@H]1C[C@H]2[C@@H]3CCC4=CC(=O)C=C[C@]4(C)[C@@]3(F)[C@@H](O)C[C@]2(C)[C@@]1(O)C(=O)CO [dexamethasone, reference compound]
- Rabbits that died or were euthanized between Days 11 and 33 [1, 5]: Six of ten
- Mortality (animals found dead or euthanized prior to study completion/number of animals in group) ([1]; 0.1% Dexamethasone (Maxidex), 0.05 mg/dose): 6/10^(3)
- Mortality rate [1]: 6 deaths per 10 rabbits
- PGE2 in aqueous humor, Mean ([4]; 0.1% topical formulation): 2.263 ng/mL
- PGE2 in aqueous humor ([4]; 0.1% topical formulation, listed as Dex): 2.51 ng/ml and 2.32 ng/ml (2×) and 2.10 ng/ml and 3.03 ng/ml and 1.30 ng/ml
